In the supplement of paper PMC10307832:

What was measured:
Test in all cases: relative viability (nuclei count vs DMSO), 5 days (fraction); higher = more cells survive
Serdemetan + Lapatinib = compound: c1ccc2c(CCNc3ccc(Nc4ccncc4)cc3)c[nH]c2c1 [Serdemetan] + CS(=O)(=O)CCNCc1ccc(-c2ccc3ncnc(Nc4ccc(OCc5cccc(F)c5)c(Cl)c4)c3c2)o1 [Lapatinib] (partner 2 µM)
Procedure, shortened: (§1)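 After 5 days of treatment, lung cancer cells in 1536-well plates were fixed and stained in a single step (final 0.05% Triton X-100, 1% formaldehyde, 1 ug/ml Hoechst) and their nuclei counted on 4× images. Treatment had been applied by pin tool the day after seeding as one drug alone or as a fixed anchor-drug dose with five library-drug doses (not always all listed) in √10 steps. Relative viability is the nuclei count of treated wells divided by that of vehicle wells, and values are medians of duplicate plates.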

Serdemetan + Navitoclax = compound: c1ccc2c(CCNc3ccc(Nc4ccncc4)cc3)c[nH]c2c1 [Serdemetan] + CC1(C)CCC(c2ccc(Cl)cc2)=C(CN2CCN(c3ccc(C(=O)NS(=O)(=O)c4ccc(N[C@H](CCN5CCOCC5)CSc5ccccc5)c(S(=O)(=O)C(F)(F)F)c4)cc3)CC2)C1 [Navitoclax] (partner 0.5 µM)
Procedure, shortened: as §1

Selisistat + Navitoclax = compound: C1CC(C2=C(C1)C3=C(N2)C=CC(=C3)Cl)C(=O)N [Selisistat] + CC1(C)CCC(c2ccc(Cl)cc2)=C(CN2CCN(c3ccc(C(=O)NS(=O)(=O)c4ccc(N[C@H](CCN5CCOCC5)CSc5ccccc5)c(S(=O)(=O)C(F)(F)F)c4)cc3)CC2)C1 [Navitoclax] (partner 0.5 µM)
Procedure, shortened: as §1

Selisistat + OSI-027 = compound: C1CC(C2=C(C1)C3=C(N2)C=CC(=C3)Cl)C(=O)N [Selisistat] + COc1cccc2cc(-c3nc([C@H]4CC[C@H](C(=O)O)CC4)n4ncnc(N)c34)[nH]c12 [OSI-027] (partner 0.5 µM)
Procedure, shortened: as §1

Question: What does the source list for UMC-11?
Answer: relative viability (Serdemetan + Lapatinib; first compound 0.04 µM): 0.953; relative viability (Serdemetan + Lapatinib; first compound 0.1265 µM): 0.915; relative viability (Serdemetan + Lapatinib; first compound 0.4 µM): 1.03; relative viability (Serdemetan + Lapatinib; first compound 1.265 µM): 0.703; relative viability (Serdemetan + Lapatinib; first compound 4 µM): 0.886; relative viability (Serdemetan + Navitoclax; first compound 0.04 µM): 0.327; relative viability (Serdemetan + Navitoclax; first compound 0.1265 µM): 0.387; relative viability (Serdemetan + Navitoclax; first compound 0.4 µM): 0.314; relative viability (Serdemetan + Navitoclax; first compound 1.265 µM): 0.266; relative viability (Serdemetan + Navitoclax; first compound 4 µM): 0.313; relative viability (Selisistat + Navitoclax; first compound 0.4 µM): 0.296; relative viability (Selisistat + Navitoclax; first compound 1.265 µM): 0.294; relative viability (Selisistat + Navitoclax; first compound 4 µM): 0.276; relative viability (Selisistat + Navitoclax; first compound 12.65 µM): 0.316; relative viability (Selisistat + Navitoclax; first compound 40 µM): 0.332; relative viability (Selisistat + OSI-027; first compound 0.4 µM): 0.498; relative viability (Selisistat + OSI-027; first compound 1.265 µM): 0.398; relative viability (Selisistat + OSI-027; first compound 4 µM): 0.385; relative viability (Selisistat + OSI-027; first compound 12.65 µM): 0.476; relative viability (Selisistat + OSI-027; first compound 40 µM): 0.46
